Results on 1 compound are retold here after patent publication US6054437A, “Method for inducing death of neoplastic cells using piperazine derivatives” (Hitachi Chemical Research Center, Inc., priority 1997, dated 2000).

Structures can show the parent of a compound that is named as a salt.

For assay [1], the system named is breast cancer cell lines. Briefly: Cancer cell death assay (LDH release), breast lines. The format is cell-based, human. The conditions noted are these: compound alone, 24 hours. The protocol:
(§1) 1. Cancer Cell Death Assay
(§2) Cell death was measured quantitatively by the release of a marker intracellular enzyme, lactate dehydrogenase (LDH), from damaged or killed cells. LDH released into the extracellular fluid, was measured 24 hours after drug exposure to cancer cells and the enzyme activity was determined by the method of Decker et al. (J. Immunolog Methods 15:61-99, 1988).
(§3) All cell lines used in the present study were obtained from the American Type Tissue Culture Laboratory and cultured according to their specifications. All were human cancer lines unless otherwise noted. The following cell lines and their tissue of origin used in our studies were:
(§4) The first assays performed measured the anti-neoplastic activity of NCO-700, alone, in cell death assays of a wide variety of human cancer cells. The results of these experiments are shown in FIGS. 1-6, where a dose-response curve of NCO-700 versus % LDH release is plotted, with higher values of LDH released indicating greater anti-neoplastic activity (apoptosis).
In FIG. 8, a dose-response curve is shown of the effect of TOP-008 on the killing of breast, prostate and colon cell lines.
For orientation: Release of lactate dehydrogenase indicates damage to the cell membrane.

Assay [2] concerns melanoma cell lines B16F10 and SK-Mel-2. Nature of the assay: Cancer cell death assay (LDH release), melanoma lines. The format is cell-based, mouse (B16F10); human (SK-Mel-2). Conditions: compound alone, 24 hours. As to the method: FIG. 2 is a graph showing the relationship between LDH released and the concentration of NCO-700 in cancer cell death assays of melanoma cell lines B16F10 (mouse line) and SK-Mel-2 (human line).
as §1, §2, §3, §4

Assay [3] deals with T-47D (breast). Briefly: Cancer cell survival assay, T-47D. Format: cell-based, human. The conditions noted are these: seven days, alone. As to the method:
(§5) Cell survival was assayed in cultured tumor cells. From 500-1000 cells per well were plated in 24-welled culture dishes and exposed to drug for seven days. After drug exposure, a computerized cell imaging technique was utilized to ascertain the number of viable cells remaining in each culture. From the data, survival curves were plotted and a ED50 (drug concentration that permits 50% cell survival) were calculated.
(§6) The cancer cell survival assay is an important additional in vitro assay to assess the anti-neoplastic activity of compounds as the cells are given a prolonged exposure (seven days) to the drug. FIGS. 9-16 show the effect of increasing the dose of NCO-700 on the survival of a number of cancer cell lines. […] In the figures, the vertical axis is the object area, which is the number of surviving cancer cells calculated by a computer.

Assay [4] deals with WIDR (colon). Briefly: Cancer cell survival assay, WIDR. Format: cell-based, human. Conditions: seven days, alone. The protocol:
as §5, §6
FIGS. 26-31 show the effect of increasing the dose of TOP-008 against a number of cancer cell lines. […] For example, if the activity of NCO-700 and TOP-008 are compared against the human colon cancer cell line WIDR (FIG. 16 in Experiment 1 versus FIG. 31) it is seen that the effective dose of TOP-008 is much lower in this particular assay.

The test system of assay [5] is human prostate cancer cells. Nature of the assay: Subrenal capsule (SRC) tumor implant assay, prostate cancer. The format is in vivo, human tumor in BDF/1 mice. As to the method: FIG. 17 is a graph showing the relationship between the mean change in size of tumor (delta mean) and the dosage of NCO-700 in a sub-renal capsule assay of human prostate cancer in BDF/1 mice.
3. In Vivo Model/Subrenal Capsule (SRC) Tumor Implant Assay
(§7) A tumor implant model, where human tumors were implanted into the renal capsule of mice was performed. The tumors successfully escaped the immune system of the mouse and grew over a six-day period. The advantage of this assay is that the effect of chemotherapeutic agents can be tested in vivo. This model was developed at the University of California, Irvine by Stratton et al. (Gynecologic Oncology 17:185-188, 1984). Human tumors were implanted on day one and were exposed to drug on days two-six. The size of the implant was determined at time zero and at the end of five days of drug treatment, and the difference in size of the implanted tumor at day six, when compared to control animals not exposed to drug, is referred to herein as the delta mean.
Human cancer cells can be grown in the sub-renal capsule of mice, where for a limited period of time they escaped the detection of the mouse's immune system. This assay provides a convenient system to study the effect of drugs on the growth of tumor cells in vivo. As this is a much more time-consuming assay, and requires more drug than the in vitro assays, the effect of NCO-700 was tested on a single prostate cancer cell line. Three groups of animals (n=23 total) were tested with three concentrations of NCO-700 including, 10 mg/kg, 20 mg/kg and 40 mg/kg.

The test system of assay [6] is human breast cancer cells. Briefly: Subrenal capsule (SRC) tumor implant assay, breast cancer. The format is in vivo, human tumor in BDF/1 mice. As to the method: FIG. 18 is a graph showing the relationship between the change in size of tumor and the dosage of NCO-700 in a sub-renal capsule assay of human breast cancer in BDF/1 mice.
as §7
The effect of NCO-700 on a breast cancer line was tested in the SRC assay. Three groups of animals (n=18 total) were tested with three concentrations of NCO-700 including, 10 mg/kg, 25 mg/kg and 50 mg/kg. […] These studies confirm the high potential of NCO-700 and related compounds as new anti-neoplastic agents.

Assay [7] concerns ovarian tumor cells. Briefly: Human tumor biopsy assay, ovarian tumor. Format: cell-based. The conditions noted are these: 20 μM NCO-700 and 0.4 mg/ml vinblastine, 1 hour. As to the method:
4. Human Tumor Biopsy Assays
where the effect of NCO-700 to enhance killing, by either vinblastine or adriamycin, of cancer cells cultured directly from patient's tumors (Von Hoff et al., Cancer Res. 43:1926-1931, 1983).
For the tumor biopsy assay, primary cell cultures were propagated directly from tumor specimens removed from patients. The cells were grown in suspension culture, treated with adriamycin or vinblastine plus NCO-700, and plated onto soft agar and incubated for two weeks before cell survival was determined.
In a final series of experiments, the effect of NCO-700 on survival of cells cultured directly from biopsied patient tumors was performed. This technique, referred to as a human tumor cloning system, was developed by Von Hoff and associates (Von Hoff et al., Cancer Res. 43:1926-1931, 1983) and was used clinically to predict the course of chemotherapy for these patients. In this method, tumor biopsies were separated into cell suspensions and treated for 1 hour with either 0.4 mg/ml vinblastine (VLB) or 0.5 mg/ml adriamycin (ADR) plus or minus 20 μM NCO-700. The cell suspensions were washed after one hour of incubation and plated with soft agar. After 14 days of incubation at 37°, the percent of colonies surviving was scored. […] In particular, the survival of tumor cells decreased to approximately 1/2 to 1/3 after exposure to NCO-700 and adriamycin. […]

As to `CCOC(=O)[C@@H]1O[C@H]1C(=O)N[C@@H](CC(C)C)C(=O)N1CCN(Cc2ccc(OC)c(OC)c2OC)CC1` [NCO-700, Bis[ethyl (2R,3R)-3-[(S)-3-methyl-1-[4-(2,3,4-trimethoxyphenylmethyl)piperazin-1-ylcarbonyl]butylcarbamoyl]oxirane-2-carboxylate] Sulfate], the “anti-neoplastic activity (LDH release)” value is on record as “the cells that were responding to NCO-700 were estrogen receptor negative” in assay [1] and “all cells lines showed sensitivity to NCO-700” in assay [2]. Further, the “anti-neoplastic activity (cell survival)” value in assay [3] and in assay [4] was “significant anti-neoplastic activity” each time. For the same compound, the “effect on tumor size” value in assay [5] (10 mg/kg) is reported as “no effect”; in assay [5] (20 mg/kg), “significant anti-neoplastic effect”; in assay [5] (40 mg/kg), “highly significant”; in assay [6] (10 mg/kg) it was “no effect”; in assay [6] (25 mg/kg) it was “significant anti-neoplastic effect”; in assay [6] (50 mg/kg), “significant anti-neoplastic effect”. Moreover, the “survival of tumor cells decreased to (fraction)” value in assay [7] is listed as “approximately 1/3”.
